Data published in patent US20090148391A1, “[…] ACTIVE PREPARATIONS COMPRISING […] DERIVATIVES AND FURTHER SKIN AND/OR HAIR LIGHTENING AND/OR SENILE KERATOSIS REDUCING COMPOUNDS” (SYMRISE GmbH & Co. KG, priority 2006, published 2009).

Key:
[1] = system: 3T3 firbrosarcoma cells; conditions: cited from earlier work
[2] = system: B16V mouse melanoma cells; conditions: cited from earlier work
[3] = system: fungal-tyrosinase; experiment: Tyrosinase-Assay: oxidation of L-DOPA to dopachrome with or without test substance, photometric detection at 475 nm; type: biochemical; conditions: weight ratio of the mixture; 50 u/ml fungal-tyrosinase, pH 6.8, 37° C., L-DOPA 0.1 mg/ml
Method: The principle of the assay is to oxidise L-DOPA to dopachrome with or without the test substance under physiological conditions in a controlled reaction. Dopachrome and dopaquinone is detected via photometric detection methods. Commercially available fungal-tyrosinase is used for testing the enzyme activity and the correlating inhibition of melanin production.
The enzymatic reaction was conducted with or without a potential inhibitor of the tyrosinase of constituents (a) and (b), such as styrylresorcinol of formula 3 (more than 99% purity) of constituent (a) alone, specific compounds of the constituent b) selected from the group consisting of (i) chelating agents, (ii) phenolic derivatives, plant extracts with an amount of phenolic derivatives and (iii) organic acid derivatives alone, as well as mixtures thereof.
The concentrations of the inhibitor or a mixture thereof range from 0.1 to 1000 μg/ml. The enzyme activity was adjusted to 50 u/ml fungal-tyrosinase in 66.7 mM phosphate buffer (pH=6.8). The reaction mixture was incubated for 10 minutes in a 96-well microtiter plate in a horizontal agitator at 37° C. Then L-DOPA (end concentration: 0.1 mg/ml). The enzymatic conversion to dopachrome is related to the inhibition activity of the single test substances or the mixture thereof, which is shown in a brown discolouration, which can be detected at 475 nm. […]

SMILES: CC(c1ccccc1)c1ccc(O)cc1O (stereo not drawn) [styrylresorcinol of the formula 3, 4-(1-phenylethyl)-1,3-dihydroxybenzene]
- tyrosinase-inhibiting activity [1]: clearly demonstrated
- tyrosinase-inhibiting activity [2]: clearly demonstrated

SMILES: O=c1cc(CO)occ1O [Kojic acid, 5-hydroxy-2-hydroxymethyl-4-pyranone]
- Ratio 4-(1-phenylthyl)-1,3-dihydroxybenzene CARN 85-27-8:(i) Chelating Agent showing synergistic enhanced lightening activity in the tyrosinase assay [3]: 1.3
